Common to all, as to assay type: cell-based
For assay [1], the system named is Staphylococcus aureus (43330). Put plainly: MIC, broth microdilution (CLSI), Staphylococcus aureus (43330). The conditions noted are these: pH 3, 18 to 24 hours. How it is done:
(§1) MIC testing is conducted using the broth (Mueller Hinton Broth) microdilution procedures relevant to each organism group as established by the Clinical and Laboratory Standards Institute (CLSI; 3-7). MIC plates are prepared in accordance with CLSI (3-7). To prepare the test plates, automated liquid handlers are used to conduct serial dilutions and liquid transfers. Automated liquid handlers utilized in this study include the Multidrop 384 (Labsystems, Helsinki, Finland) and the Biomek 2000 (Beckman Coulter, Fullerton CA). The solution is diluted to desired pH using 1 M Citric Acid or 1 M NaOH buffer. A standardized inoculum of each test organism is prepared per CLSI methods (3, 5-7) to equal a 0.5 McFarland standard in the appropriate media followed by an additional 1:20 dilution (1:10 for anaerobes).
(§2) The plates are then inoculated with 10 μL of the diluted 0.5 McFarland suspension using the Biomek 2000 from low to high drug concentration, resulting in a final concentration of approximately 5×10^5 CFU/mL per well. An un-inoculated plate is incubated for the purpose of assessing solubility of the drug in the test media. The plates are stacked 3 to 4 high, covered with a sterile lid on the top plate, and incubated for 18 to 24 hours according to CLSI. The MIC is recorded as the lowest concentration of respective compound that inhibited visible growth of the organism.

A further assay concerns Escherichia coli (25922). The experiment in a line: MIC, broth microdilution (CLSI), Escherichia coli (25922). The conditions noted are these: pH 3, 18 to 24 hours. How it is done:
as §1, §2

In assay [2] the test system is Pseudomonas aeruginosa (27853). The experiment in a line: MIC, broth microdilution (CLSI), Pseudomonas aeruginosa (27853). To be noted: pH 3, 18 to 24 hours. The protocol:
as §1, §2

The test system of the next assay is Candida albicans (22972). The experiment in a line: MIC, broth microdilution (CLSI), Candida albicans (22972). The conditions noted are these: pH 3, 18 to 24 hours. The protocol:
as §1, §2

In another assay the test system is Escherichia coli (0102). Put plainly: MIC, broth microdilution (CLSI), Escherichia coli (0102). The conditions noted are these: pH 4-5, 18 to 24 hours. The protocol: as §1, §2
A further assay deals with Escherichia coli (6260). The experiment in a line: MIC, broth microdilution (CLSI), Escherichia coli (6260). To be noted: pH 4-5, 18 to 24 hours. How it is done: as §1, §2
Assay [3] concerns Pseudomonas aeruginosa (0103). Put plainly: MIC, broth microdilution (CLSI), Pseudomonas aeruginosa (0103). The conditions noted are these: pH 4-5, 18 to 24 hours. How it is done:
as §1, §2

Assay [4] relates to Pseudomonas aeruginosa (6160). The experiment in a line: MIC, broth microdilution (CLSI), Pseudomonas aeruginosa (6160). The conditions noted are these: pH 4-5, 18 to 24 hours. How it is done: as §1, §2
The subject of assay [5] is Pseudomonas aeruginosa (6234). Put plainly: MIC, broth microdilution (CLSI), Pseudomonas aeruginosa (6234). The conditions noted are these: pH 4-5, 18 to 24 hours. How it is done: as §1, §2
The next assay concerns Escherichia coli (6098). Put plainly: MIC, broth microdilution (CLSI), Escherichia coli (6098). The conditions noted are these: pH 4-5, 18 to 24 hours. The protocol: as §1, §2
Another assay relates to Escherichia coli (6258). Put plainly: MIC, broth microdilution (CLSI), Escherichia coli (6258). The conditions noted are these: pH 4-5, 18 to 24 hours. How it is done:
as §1, §2

Another assay concerns Escherichia coli (6259). The experiment in a line: MIC, broth microdilution (CLSI), Escherichia coli (6259). To be noted: pH 4-5, 18 to 24 hours. How it is done: as §1, §2
Assay [6] has as its system Pseudomonas aeruginosa (6326). Put plainly: MIC, broth microdilution (CLSI), Pseudomonas aeruginosa (6326). To be noted: pH 4-5, 18 to 24 hours. How it is done:
as §1, §2

Assay [7] relates to Pseudomonas aeruginosa (6328). The experiment in a line: MIC, broth microdilution (CLSI), Pseudomonas aeruginosa (6328). To be noted: pH 4-5, 18 to 24 hours. How it is done:
as §1, §2

In the case of `CCCCOP(=O)(O)OC[C@H]1O[C@@H](n2ncc3c(N)ncnc32)C[C@@H]1O` [LAI-018, ((2R, 3S, 5R)-5-(4-amino-1H-pyrazolo [3,4-d]pyrimidine-1-yl)-3-hydroxytetra hydrofuran-2-yl)methyl butyl hydrogen phosphate], the MIC in assay [1] worked out at 25 mg/mL; in the assay on Escherichia coli (25922), 25 mg/mL; in [2], 25 mg/mL; in the assay with Candida albicans (22972) it was 5 mg/mL.
For the compound `CCCCOP(=O)(O)OC[C@H]1O[C@@H](n2cnc3cnc(N)nc32)C[C@@H]1O` [LAI-020, ((2R,3S,5R)-5-(2-amino-9H-purin-9-yl)-3-hydroxytetrahydrofuran-2-yl)-methyl butyl hydrogen phosphate], the minimal inhibitory concentration (MIC) in assay [1] came out at 25 mg/mL; against Escherichia coli (25922), 25 mg/mL; in assay [2], 5 mg/mL; against Candida albicans (22972), 25 mg/mL.
Take `CCCCOP(=O)(O)OC[C@H]1O[C@@H](n2cnc3c(N)ncnc32)C[C@@H]1O` [LAI-017, ((2R,3S,5R)-5-(6-amino-9H-purin-9-yl)-3-hydroxytetrahydrofuran-2-yl)methyl butyl hydrogen phosphate]: the MIC was found to be 25 mg/mL in assay [1], 25 mg/mL against Escherichia coli (25922), 5 mg/mL in assay [2] and 5 mg/mL in the assay on Candida albicans (22972).
With `CCCCOP(=O)(O)OC[C@H]1O[C@@H](n2cnc3c(=O)[nH]c(N)nc32)C[C@@H]1O` [R-4, ((2R,3S,5R)-5-(2-amino-1,9-dihydro-6H-purin-6-one-9-yl)-3-hydroxytetrahydrofuran-2-yl)-methyl butyl hydrogen phosphate], the MIC against Escherichia coli (0102) stood at 50 mg/mL; in the assay on Escherichia coli (6260), 100 mg/mL; in [3], 25 mg/mL; in assay [4], 50 mg/mL; in assay [5] it was 25 mg/mL.
Take `CCCCOP(=O)(O)OC[C@H]1O[C@@H](n2cnc3c(=O)[nH]c(N)nc32)[C@H](OC)[C@@H]1O` [R-8, ((2R,3R,4R,5R)-5-(2-amino-1,9-dihydro-6H-purin-6-one-9-yl)-4-methoxy-3-hydroxytetrahydrofuran-2-yl)-methyl butyl hydrogen phosphate]: the MIC (with Escherichia coli (0102); against Escherichia coli (6260); in the assay on Escherichia coli (6098); in the assay on Escherichia coli (6258); in the assay with Escherichia coli (6259); in assay [3]) was 100 mg/mL in each case. Also, the MIC in assay [4] is 100 mg/mL; in assay [5], 50 mg/mL; in assay [6] it was 100 mg/mL; in assay [7], 100 mg/mL.

The values above are taken from patent publication US20260294949A1, “SUBSTITUTED BICYCLIC HETEROCYCLE COMPOUNDS, COMPOSITIONS, AND USES THEREOF” (Lakewood Amedex, Inc., priority 2023, published 2026).
